Measurements published in US20090105278A1, “Selective inhibitors of human corticosteroid syntheses” (Universitat Des Saarlandes, priority 2004, published 2009).
Structures can show the parent of a compound that is named as a salt.

How the values were obtained:
human CYP11B1 = target: T1, human CYP11B1 (Homo sapiens, UniProt P15538); test: V79 MZh 11B1 cells inhibition test; type: cell-based; settings: hamster fibroblasts which express human CYP11B1; deoxycorticosterone substrate 100 nM; read-out: IC50 V79 11B1 hCYP11B1
T1 construct: expressed in transfected cells; host or cells: V79 MZh11B1 (Chinese hamster lung fibroblasts)
T1 sequence (P15538 25-503): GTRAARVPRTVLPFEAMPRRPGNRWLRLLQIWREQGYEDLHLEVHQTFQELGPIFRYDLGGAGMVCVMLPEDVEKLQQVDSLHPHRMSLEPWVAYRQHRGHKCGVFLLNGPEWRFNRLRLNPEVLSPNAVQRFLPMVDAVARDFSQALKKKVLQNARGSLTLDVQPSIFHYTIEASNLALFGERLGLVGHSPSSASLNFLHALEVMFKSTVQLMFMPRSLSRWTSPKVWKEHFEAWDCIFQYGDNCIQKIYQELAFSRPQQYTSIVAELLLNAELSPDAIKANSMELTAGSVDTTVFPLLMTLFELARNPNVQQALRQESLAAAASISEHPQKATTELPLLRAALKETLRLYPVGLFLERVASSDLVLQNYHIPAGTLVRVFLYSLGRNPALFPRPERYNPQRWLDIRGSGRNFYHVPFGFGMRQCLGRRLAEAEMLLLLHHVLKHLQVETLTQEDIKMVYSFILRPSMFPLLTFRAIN
Procedure: Both cell lines were cultured in DMEM^+ containing […] and the antibiotics penicillin and streptomycin (10%) for protection from bacterial contamination. The cells were passaged every 2-3 days after treatment with trypsin/EDTA because the doubling rate was 1-2 days depending on the number of cells. […] When there was further need, freshly thawed cells were employed.
Thereafter, the plate was stored at 37° C. and […] in a CO2 incubator. […] Controls without inhibitor were treated in the same way. The enzyme reactions were quenched by extracting the supernatant with 500 μl of EtOAc. The samples were centrifuged (10,000 g, 2 min), the solvent was removed and evaporated.
It was calculated by determining the percent inhibition for at least 3 different inhibitor concentrations, which must all be in the linear range of the sigmoidal IC50 curve (log C/% inhibition).
The calculation was effected by linear regression. The values determined were used only if they formed a straight line with a reliability of […].
The plate was developed twice with the mobile solvent chloroform:methanol:water (300:20:1). Unlabeled 11-deoxycorticosterone and corticosterone were applied as a reference for the CYP11B1 reaction. For the CYP11B2 reaction, 11-deoxycorticosterone, corticosterone, 18-hydroxycorticosterone and aldosterone were used as references. The detection of the unlabeled references was effected at 260 nm. Subsequently, imaging plates (BAS MS2340, for ^14C samples, Raytest, Straubenhardt, Germany) were exposed to the HPTLC plates for 48 h. The imaging plates were scanned with the phosphoimager system Fuji FLA 3000 (Raytest, Straubenhardt, Germany), and the steroids were quantified.

human CYP17 = target: T2, human CYP17 (Homo sapiens, UniProt P05093); test: Percent inhibition of CYP17 (membrane fraction of E. coli pJL17/OR); type: biochemical; settings: E. coli which expresses human CYP17; 5 mg/ml protein; progesterone substrate 2.5 μM; inhibitor 2.5 μM; read-out: % Inhibition human CYP17
T2 construct: made in house; host or cells: E. coli pJL17/OR (membrane fraction)
T2 sequence (P05093 1-508): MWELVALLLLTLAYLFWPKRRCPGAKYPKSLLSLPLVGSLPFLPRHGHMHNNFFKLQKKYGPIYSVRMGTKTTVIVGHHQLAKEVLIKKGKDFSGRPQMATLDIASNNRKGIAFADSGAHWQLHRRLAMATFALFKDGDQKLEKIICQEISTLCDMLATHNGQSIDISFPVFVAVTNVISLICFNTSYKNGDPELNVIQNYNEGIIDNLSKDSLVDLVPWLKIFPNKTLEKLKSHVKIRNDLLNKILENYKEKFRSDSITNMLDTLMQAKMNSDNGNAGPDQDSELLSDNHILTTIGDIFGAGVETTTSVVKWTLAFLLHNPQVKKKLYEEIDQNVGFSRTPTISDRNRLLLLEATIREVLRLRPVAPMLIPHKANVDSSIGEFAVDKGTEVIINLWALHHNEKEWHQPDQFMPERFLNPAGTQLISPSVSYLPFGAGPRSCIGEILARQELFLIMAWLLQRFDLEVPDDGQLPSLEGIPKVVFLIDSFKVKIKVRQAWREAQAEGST
Outline: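 Membranes were isolated from E. coli pJL17/OR, which coexpresses human CYP17 with rat NADPH-P450-reductase, by lysozyme treatment, sonication and centrifugation at 50,000 g, then stored at −70° C. Reactions were started with diluted membrane suspension (0.8 to 1 mg of protein per ml), incubated at 37° C for 30 min, extracted with EtOAc and analyzed by HPLC. Inhibition was calculated from reduced substrate conversion versus DMSO controls.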

Row | Compound | IC50 (human CYP11B1) | inhibition at 2.5 µM (human CYP17)
1 | Clc1cccc2c1CC/C2=C\c1cccnc1 [Compound 25a, 3-[(E)-(4-Chloro-2,3-dihydro-1H-indane-1-ylidene)methyl]pyridine Hydrochloride] | 304 nM | 14%
2 | Clc1cccc2c1CC/C2=C/c1cccnc1 [Compound 25b, 3-[(Z)-(4-Chloro-2,3-dihydro-1H-indane-1-ylidene)methyl]pyridine Hydrochloride] | 657 nM | 32%
3 | COc1cccc2c1/C(=C/c1cccnc1)CC2 [Compound 26a, 3-[(E)-(7-Methoxy-2,3-dihydro-1H-indane-1-ylidene)methyl]pyridine Hydrochloride] | 955 nM | 5%
4 | Fc1ccc2c(c1)CC/C2=C\c1cncnc1 [Compound 28a, 5-[(E)-(5-Fluoro-2,3-dihydro-1H-indane-1-ylidene)methyl]pyrimidine Hydrochloride] | 3180 nM | 6%
5 | Fc1ccc2c(c1)CC/C2=C\c1cccc2cnccc12 [Compound 30a, 5-[(E)-(5-Fluoro-2,3-dihydro-1H-indane-1-ylidene)methyl]isoquinoline Hydrochloride] | 1130 nM | 57%
6 | Fc1ccc2c(c1)CC/C2=C/c1cccc2cnccc12 [Compound 30b, 5-[(Z)-(5-Fluoro-2,3-dihydro-1H-indane-1-ylidene)methyl]isoquinoline Hydrochloride] | 374 nM | 65%
7 | C(=C1/CCc2ccccc21)/c1cnc[nH]1 [Compound 42a, 5-[(E)-2,3-Dihydro-1H-indane-1-ylidenemethyl]-1H-imidazole] | 25.9 nM | 11%
8 | C(=C1\CCc2ccccc21)/c1cnc[nH]1 [Compound 42b, 5-[(Z)-2,3-Dihydro-1H-ind-1-ylidenemethyl]-1H-imidazolium oxalate] | 6.1 nM | 1%
